Measurements: patent publication US6573218B1, “Fused-benzene derivatives useful as herbicides” (Ishihara Sangyo Kaisha, Ltd., priority 1998, dated 2003)

Key:
Type in all cases: in vivo
[1] = test system: green foxtail (Setaria viridis, SETVI); test: Post-emerge greenhouse herbicide test; conditions: 250 g ai/ha, 14 days after application
Procedure, shortened: (§1)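 Greenhouse pot test; acetone vehicle, 187 l/ha, 15–1000 g ai/ha. Post: 2–3 leaf, +0.25% v/v non-ionic surfactant. Pre: sown d-1, surface-watered after spray. Read-out 0–100 injury, 14 DAT.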

[2] = test system: sicklepod (Cassia obtusifolia, CASOB); test: Post-emerge greenhouse herbicide test; conditions: 250 g ai/ha, 14 days after application
Procedure, shortened: as §1

[3] = test system: velvetleaf (Abutilon theophrasti, ABUTH); test: Post-emerge greenhouse herbicide test; conditions: 250 g ai/ha, 14 days after application
Procedure, shortened: as §1

[4] = test system: barnyardgrass (Echinochloa crus-galli, ECHCG); test: Post-emerge greenhouse herbicide test; conditions: 250 g ai/ha, 14 days after application
Procedure, shortened: as §1

[5] = test system: johnsongrass (Sorghum halepense, SORHA); test: Post-emerge greenhouse herbicide test; conditions: 250 g ai/ha, 14 days after application
Procedure, shortened: as §1

[6] = test system: redroot pigweed (Amaranthus retroflexus, AMARE); test: Post-emerge greenhouse herbicide test; conditions: 250 g ai/ha, 14 days after application
Procedure, shortened: as §1

[7] = test system: common ragweed (Ambrosia artemisiifolia L., AMBEL); test: Post-emerge greenhouse herbicide test; conditions: 250 g ai/ha, 14 days after application
Procedure, shortened: as §1

[8] = test system: large crabgrass (Digitaria sanguinalis, DIGSA); test: Post-emerge greenhouse herbicide test; conditions: 250 g ai/ha, 14 days after application
Procedure, shortened: as §1

[9] = test system: ivyleaf morningglory (Ipomoea hederacea, IPOHE); test: Post-emerge greenhouse herbicide test; conditions: 250 g ai/ha, 14 days after application
Procedure, shortened: as §1

[10] = test system: lambsquarters (Chenopodium album, CHEAL); test: Post-emerge greenhouse herbicide test; conditions: 250 g ai/ha, 14 days after application
Procedure, shortened: as §1

[11] = test system: soybean (Glycine max L., var. Pella 86, SOY); test: Pre-emerge greenhouse crop damage test
Procedure, shortened: as §1

[12] = test system: upland rice (Ory0a sp., var.Tebonnet, RICE); test: Pre-emerge greenhouse crop damage test; conditions: in vivo
Procedure, shortened: as §1

[13] = test system: field corn (Zea mays L., var. Dekalb 527, CORN); test: Pre-emerge greenhouse crop damage test
Procedure, shortened: as §1

[14] = test system: green foxtail (Setaria viridis, SETVI); test: Pre-emerge greenhouse herbicide test; conditions: 250 g ai/ha, 14 days after application, scale 0-100 (0 no damage, 100 complete death)
Procedure, shortened: as §1

[15] = test system: sicklepod (Cassia obtusifolia, CASOB); test: Pre-emerge greenhouse herbicide test; conditions: 250 g ai/ha, 14 days after application, scale 0-100 (0 no damage, 100 complete death)
Procedure, shortened: as §1

[16] = test system: velvetleaf (Abutilon theophrasti, ABUTH); test: Pre-emerge greenhouse herbicide test; conditions: 250 g ai/ha, 14 days after application, scale 0-100 (0 no damage, 100 complete death)
Procedure, shortened: as §1

[17] = test system: barnyardgrass (Echinochloa crus-galli, ECHCG); test: Pre-emerge greenhouse herbicide test; conditions: 250 g ai/ha, 14 days after application, scale 0-100 (0 no damage, 100 complete death)
Procedure, shortened: as §1

[18] = test system: johnsongrass (Sorghum halepense, SORHA); test: Pre-emerge greenhouse herbicide test; conditions: 250 g ai/ha, 14 days after application, scale 0-100 (0 no damage, 100 complete death)
Procedure, shortened: as §1

[19] = test system: redroot pigweed (Amaranthus retroflexus, AMARE); test: Pre-emerge greenhouse herbicide test; conditions: 250 g ai/ha, 14 days after application, scale 0-100 (0 no damage, 100 complete death)
Procedure, shortened: as §1

[20] = test system: large crabgrass (Digitaria sanguinalis, DIGSA); test: Pre-emerge greenhouse herbicide test; conditions: 250 g ai/ha, 14 days after application, scale 0-100 (0 no damage, 100 complete death)
Procedure, shortened: as §1

[21] = test system: ivyleaf morningglory (Ipomoea hederacea, IPOHE); test: Pre-emerge greenhouse herbicide test; conditions: 250 g ai/ha, 14 days after application, scale 0-100 (0 no damage, 100 complete death)
Procedure, shortened: as §1

[22] = test system: lambsquarters (Chenopodium album, CHEAL); test: Pre-emerge greenhouse herbicide test; conditions: 250 g ai/ha, 14 days after application, scale 0-100 (0 no damage, 100 complete death)
Procedure, shortened: as §1

[23] = test system: soybean (Glycine max L., var. Pella 86, SOY); test: Post-emerge greenhouse crop damage test
Procedure, shortened: as §1

[24] = test system: upland rice (Ory0a sp., var.Tebonnet, RICE); test: Post-emerge greenhouse crop damage test
Procedure, shortened: as §1

[25] = test system: field corn (Zea mays L., var. Dekalb 527, CORN); test: Post-emerge greenhouse crop damage test
Procedure, shortened: as §1

[26] = pre-emerge, 250 g ai/ha, 14 days after application, scale 0-100 (0 no damage, 100 complete death)
[27] = 250 g ai/ha, post-emerge, 14 days after application
[28] = var. Pella 86, soybean (Glycine max L.), in vivo, 14 days
[29] = var. Dekalb 527, field corn (Zea mays L.), in vivo, 14 days

Row | Structure (SMILES) | Post-emerge Herbicidal Activity SETVI (phytotoxicity rating 0-100) [1] | Post-emerge Herbicidal Activity CASOB (phytotoxicity rating 0-100) [2] | Post-emerge Herbicidal Activity ABUTH (phytotoxicity rating 0-100) [3] | Post-emerge Herbicidal Activity ECHCG (phytotoxicity rating 0-100) [4] | Post-emerge Herbicidal Activity SORHA (phytotoxicity rating 0-100) [5] | Post-emerge Herbicidal Activity AMARE (phytotoxicity rating 0-100) [6] | Post-emerge Herbicidal Activity AMBEL (phytotoxicity rating 0-100) [7] | Post-emerge Herbicidal Activity DIGSA (phytotoxicity rating 0-100) [8] | Post-emerge Herbicidal Activity IPOHE (phytotoxicity rating 0-100) [9] | Post-emerge Herbicidal Activity CHEAL (phytotoxicity rating 0-100) [10] | Pre-emerge Herbicidal Activity SETVI (phytotoxicity rating) [14] | Pre-emerge Herbicidal Activity CASOB (phytotoxicity rating) [15] | Pre-emerge Herbicidal Activity ABUTH (phytotoxicity rating) [16] | Pre-emerge Herbicidal Activity ECHCG (phytotoxicity rating) [17] | Pre-emerge Herbicidal Activity SORHA (phytotoxicity rating) [18] | Pre-emerge Herbicidal Activity AMARE (phytotoxicity rating) [19] | Pre-emerge Herbicidal Activity DIGSA (phytotoxicity rating) [20] | Pre-emerge Herbicidal Activity IPOHE (phytotoxicity rating) [21] | Pre-emerge Herbicidal Activity CHEAL (phytotoxicity rating) [22] | further results
1 | CC1Oc2c(Cl)cc(F)c(-c3nn(C)c(OC(F)F)c3Cl)c2NC1=O (centres unmarked) [Compound 10-8, 4-Chloro-3-(8-chloro-6-fluoro-2-methyl-2H-1,4-benzoxazine-3-one-5-yl)-5-difluoromethoxy-1-methyl-i H-pyrazole] | 100 | 100 | 100 | 100 | 55 | 100 | 95 | 65 | 100 | 100 | 100 | 95 | 100 | 100 | 99 | 100 | 100 | 99 | 100 | Pre-emerge Herbicidal Activity SOY (crop damage rating) [11, 26]: 15; Pre-emerge Herbicidal Activity RICE (crop damage rating) [12]: 40; Pre-emerge Herbicidal Activity CORN (crop damage rating) [13, 26]: 0; Post-emerge crop damage SOY (phytotoxicity rating 0-100) [23, 27]: 100; Post-emerge crop damage RICE (phytotoxicity rating 0-100) [24, 27]: 90; Post-emerge crop damage CORN (phytotoxicity rating 0-100) [25, 27]: 25
2 | COC(=O)CC1CNc2c(c(Cl)cc(F)c2-n2c(=O)cc(C(F)(F)F)n(C)c2=O)O1 (centres unmarked) [Compound 2-8, 3-[8-Chloro-6-fluoro-2-(methoxycarbonyl)methyl-3,4-dihydro-2H-1,4-benzoxazin-5-yl]-1-methyl-6-trifluoromethyl-2,4(1H,3H)-pyrimidindione] | 100 | 50 | 100 | 80 | 95 | 100 | 100 | 50 | 100 | 100 | 100 | 100 | 100 | 60 | 100 | 100 | 100 | 100 | 100 | Pre-emerge Herbicidal Activity SOY (crop damage rating) [11, 28]: 100; Pre-emerge Herbicidal Activity RICE (crop damage rating) ([12]; var. Tebonnet, upland rice (Ory0a sp.), 14 days): 50; Pre-emerge Herbicidal Activity CORN (crop damage rating) [13, 29]: 70; Post-emerge crop damage SOY (phytotoxicity rating 0-100) [23, 28]: 100; Post-emerge crop damage RICE (phytotoxicity rating 0-100) ([24]; var. Tebonnet, upland rice (Ory0a sp.), in vivo, 14 days): 90; Post-emerge crop damage CORN (phytotoxicity rating 0-100) [25, 29]: 70
